Reference: ChEMBL document CHEMBL3507680, “University of Dundee, Gates Library screen for HepG2 cell viability”

Test: Human HepG2 cell viability assay in 384 well format
Format: toxicity, cell-based
Design: dose 125 nL, time 70.5 hour; cytotoxicity at 70.5 h: concentration not given beside the values
Conditions: HepG2 cells, read-out: Inhibition

Row | SMILES | cytotoxicity at 70.5 h
1 | CC(C)N1CCC(N2CCN(C3CCCCC3)CC2CCO)CC1 (stereo not given) | -10.5%
2 | CCCn1c(C)c(CC(=O)N[C@H](C)C(=O)OC)c2c1CC(C)(C)CC2=O | -0.686%
3 | CCCc1nnc(C(=O)N(C)Cc2ccc(OC)cc2)o1 | -2.69%
4 | CN1CCC(c2n[nH]c(=O)n2CC2CCCCC2)CC1 | -8.59%
5 | Cn1ncc2c(NCCOCc3ccccc3)nc(C3CCCC3)nc21 | -3.35%
6 | C[C@H]1CC[C@H](C(=O)N2CCC(n3cc(C4(O)CCCC4)nn3)CC2)CC1 | -16.2%
7 | CSCCCNC(=O)C1CCC(=O)N(C2CCCC2)C1 (stereo not given) | -3.06%
8 | O=C1CCCN1C1CCCN(CCn2cc(Cl)cn2)C1 (stereo not given) | -26.9%
9 | O=C(CC1CCC1)N1CCCC(CO)(CC2CC2)C1 (stereo not given) | -7.78%
10 | CC(C)[C@@H]1CN(C(=O)c2ccsc2)C[C@H]1C(=O)O | -6.74%
11 | Cc1cc(CN2CCC(C3CCN(CC(C)C)CC3)C2)[nH]n1 (stereo not given) | -3.48%
12 | O=C(Cn1cccn1)N(CCO)CCSc1ccc(Cl)cc1 | -11.6%
13 | Cc1cc(C)c2c(NCc3nncn3C3CCCCC3)ncnc2n1 | -13.6%
14 | CC(C)c1nccn1C(C)C(=O)NC1CCOCC1 (stereo not given) | 2.76%
15 | Cc1nccn1-c1ccc(N2CCC(N[C@H](C)C(C)C)CC2)cc1 | 0.757%
16 | CCNc1ncc(C(=O)N[C@H](C(N)=O)c2ccccc2)cn1 | 24%
17 | COCCNc1nc(C)nc2c1CCN(C[C@H]1CC[C@@H](N)CC1)CC2 | 44.2%
18 | O=C(NCC(O)c1cccc(F)c1)C1CCN(C2CCCCC2)CC1 (stereo not given) | -16.4%
19 | CN(CCc1cn[nH]c1)Cc1nc(Cc2cccc(F)c2)no1 | 19%
20 | CCc1cc(N2CCN(c3cnccn3)CC2)n2nc(C)c(C)c2n1 | 10.7%
21 | COc1ccc(CCN2CC(c3nc(CSC)no3)CCC2=O)cc1 (stereo not given) | -4.88%
22 | COC(=O)[C@@H](NC(=O)c1coc(COc2cccc(F)c2)n1)C(C)C | 4.83%

Row | SMILES | cytotoxicity at 70.5 h
23 | O=C1OCCN1Cc1cccc(F)c1C(F)(F)F | -5.55%
24 | CNc1ccc(Cl)cc1C(=O)N1CCC(Cn2cc(CN)nn2)CC1 | 1.05%
25 | CO[C@H]1CNC[C@@H]1NC(=O)c1cc(C)nc2ccc(C)cc12 | 12.1%
26 | Cc1nc(N(C)C)nc(-c2cccc(-c3ccn(CCCF)n3)c2)c1C | -10.9%
27 | CCOCCC(=O)N1Cc2cnc(-c3ccccc3)nc2C1 | -12.5%
28 | CCN(CC)Cc1nc(Cc2cccc(C(F)(F)F)c2)no1 | -7.89%
29 | COC[C@H]1CCCN1c1nccc(-c2cnn(-c3ccccc3C)c2)n1 | -1.39%
30 | CCS(=O)(=O)c1ncc(CN(C)Cc2ccc(C)o2)n1CCOC | 17.1%
31 | CSCc1ccc(N2CCN(c3ccc(Cl)cn3)CC2)nc1 | 3.63%
32 | Cc1cccc(CN2CCN(c3nc(CO)cs3)CC2)c1 | -4.76%
33 | COCCN1CCC(CNC(=O)Nc2ccc(SC(F)(F)F)cc2)C1 (stereo not given) | -1.27%
34 | O=C(Nc1ccccc1CCc1ccccn1)NC1CCOCC1 | 0.573%
35 | Cc1cnc(NCC(C)(C)N2CCN(C)CC2)nc1 | -0.355%
36 | CCC[C@@H]1CN(Cc2ccc(C(F)(F)F)nc2)C[C@H]1C(=O)O | -8.04%
37 | CC(C)c1cc(C(=O)N2C[C@H]3CC[C@@H]2CN(Cc2ccccn2)C3)no1 | -7.13%
38 | COc1ccc2c(C)nc(N3CCN([C@H]4CCCC[C@@H]4O)CC3)nc2c1 | 18.8%
39 | COCCN1C(=O)[C@H]2CC[C@@H]1CN(S(=O)(=O)c1ccc(OC)cc1)C2 | -3.09%
40 | CCSc1ncc(-c2cc(C3CCC3)nc(N)c2C#N)cn1 | 9.11%
41 | Cc1ccccc1C1CCN(CCn2cc(-c3cccc(O)c3)nn2)C1 (stereo not given) | 29.4%
42 | O=C(CCN1CCCC1c1ccccn1)N1CCc2ccccc2C1 (stereo not given) | -16.1%
43 | CCOc1ccc(C(=O)CCC(=O)N(C)Cc2nc(C)c[nH]2)cc1C | -19.8%
44 | COc1ccccc1-c1ncc(CN2C[C@@H](N(C)C)[C@H](C(C)C)C2)s1 | -5.83%

Row | SMILES | cytotoxicity at 70.5 h
45 | CS(=O)(=O)NCCC(=O)NCc1cccnc1-n1cnc2ccccc21 | -12.6%
46 | CN(C)C(=O)N1CCCC(C(=O)N(C)CCCc2cnn(C)c2)C1 (stereo not given) | -11.5%
47 | CN1CCN(C[C@@H]2CN(C(=O)CC3CCCCC3)C[C@@H]2CO)CC1 | 0.234%
48 | CN(CCCO)C(=O)c1cc(COc2ccc3c(c2)CCCC3)on1 | -7.55%
49 | CCc1c(O)nc(SCC(=O)Nc2ccccc2)n(C(C)CC)c1=O (stereo not given) | 22%
50 | O=C(CCc1nc(Cl)n[nH]1)NC1CCCN(C2Cc3ccccc3C2)C1 (stereo not given) | -9.23%
51 | Cc1nc(CNC(=O)c2cc(COc3ccccc3)[nH]n2)n[nH]1 | -5.91%
52 | COc1ccc(CN2CCCC2)cc1Oc1ccc(NC(C)=O)cc1 | -3.35%
53 | Cc1cnc(C(=O)N2C[C@H]3CC[C@@H]2CN(c2cnccn2)C3)cn1 | -2.4%
54 | Cc1nc(N2CCN(C)CC2)ncc1C(=O)N1C[C@@H](C)[C@@](C)(O)C1 | 4.1%
55 | CN(C)[C@H]1CCCCN(Cc2cnc(NCc3ccccc3)nc2)C1 | -1.39%
56 | CN1CCCN(Cc2nc(Cc3ccccc3)n[nH]2)CC1 | -3.87%
57 | CC(C)N1CC2(CCC1=O)CCN(c1ccnc3ccccc13)CC2 | 41.8%
58 | CCc1nc(N)sc1C(=O)N1CCCC(COc2cccc(C)c2)C1 (stereo not given) | -0.442%
59 | CNC(=O)[C@@H]1C[C@@H](NC(=O)Cc2cccs2)CN1C1CCOCC1 | -3.22%
60 | c1cnc(N2CCC3(CCCN(CC4CCCCC4)C3)C2)cn1 (stereo not given) | -11.2%
61 | CSc1ccc(-c2nc(CN3CCNCC3C)c(C)o2)cc1 (stereo not given) | 3%
62 | CCOc1ccc(CCCC(=O)N2CCC(c3nnn[nH]3)CC2)cc1C | -11.9%
63 | CCCOC1CCCN(Cc2nc(-c3ccc(F)cc3F)oc2C)C1 (stereo not given) | -5.84%
64 | O=C(O)[C@@H]1CN(Cc2ccc(-c3cc[nH]n3)s2)C[C@H]1C1CC1 | -4.26%
65 | CN1CCC(CNC(=O)Cc2ccc(N(C)C)cc2)CC1 | -6.81%
66 | O=C(c1coc(CN2CCN(c3ccccc3F)CC2)n1)N1CC=CC1 | 15.2%

Row | SMILES | cytotoxicity at 70.5 h
67 | Cc1ccccc1CN(CCN(C)C)Cc1ccc(O)c(C(=O)O)c1 | -8.19%
68 | Cn1cc2ncn(CCCOc3cccnc3)c(=O)c2n1 | 22.8%
69 | CN1CC2(CCCN(c3cnccn3)C2)OC1=O (stereo not given) | -9.73%
70 | CCCc1nnc(N2C[C@@H](C)[C@@](C)(O)C2)s1 | 12%
71 | Cc1ccccc1-n1cc(-c2ccnc(N3CCCC(CN)C3)n2)cn1 (stereo not given) | -7.47%
72 | CC(=O)NC1CCN(c2nc(N)nc3c2CCCC3)C1 (stereo not given) | -8.84%
73 | CC(O)C1CCN(Cc2cnc3c(-c4ccccc4)cnn3c2)CC1 (stereo not given) | -7.53%
74 | CN(C)C(C(=O)N1Cc2ccccc2C1)c1ccccc1F (stereo not given) | -2.59%
75 | O=C(NCCc1c[nH]cn1)c1ccccc1C1CCNC1 (stereo not given) | 18%
76 | CCN(Cc1cnn(CC)c1)Cc1c(Cl)cncc1Cl | -2.13%
77 | O=C(c1ccncc1F)N1C[C@H]2CC[C@@H]1CN(Cc1cccnc1)C2 | -4.95%
78 | CCn1ncnc1C(C)NC(=O)C1CCN(C2CCCCC2)CC1 (stereo not given) | -7.1%
79 | COCCN1CCN(Cc2nccs2)[C@H]2CS(=O)(=O)C[C@H]21 | -2.69%
80 | Fc1ccc(C2(CNCCc3cccs3)CCOC2)cc1 (stereo not given) | -6.84%
81 | O=C(O)[C@@H]1CN(C(=O)CN2Cc3ccccc3C2)C[C@H]1c1ccncc1 | -1.71%
82 | O=C(O)[C@@H]1CN(C(=O)CCCc2ccc(F)cc2)C[C@H]1C1CC1 | -5.36%
83 | C=Cc1cccc(CN2C[C@@H](CN(C)CC)[C@@H](CO)C2)c1 | 3.14%
84 | O=C(O)c1ccc(CC2CCN(Cc3ccc(-c4cc[nH]n4)o3)C2)cc1 (stereo not given) | -5.13%
85 | Cc1cc(C)cc(-n2ncc3c2CCCC3N)c1 (stereo not given) | -5.06%
86 | COCCC(=O)N(Cc1cccnc1)CC1CCN(C2CCCC2)CC1 | 3.05%
87 | Cc1nc(N(CCC(N)=O)Cc2ccccc2)c2nc(C)oc2n1 | 9.6%
88 | O=C(NCCc1nc2ccccc2s1)c1coc(CN2CCOCC2)c1 | 5.71%

Row | SMILES | cytotoxicity at 70.5 h
89 | CC(C)NC(=O)[C@@H]1C[C@@H](N)CN1C(=O)CCSCc1ccccc1 | 1.3%
90 | O=C(CN1CCCC1=O)NCc1cccnc1Oc1ccc(F)c(F)c1 | 1.24%
91 | C[C@@H]1CN(C(=O)CCN2CCOCC2)CC[C@]1(C)O | -2.33%
92 | Cc1ccc(CN(CCN(C)C)C(=O)Nc2cc(C(N)=O)ccc2C)s1 | 21.3%
93 | Cc1cc(-c2ccccc2Cl)nc(N)n1 | -8.36%
94 | N#Cc1cccc(CN2CCN(C(=O)C3CCC3)[C@@H]3CS(=O)(=O)C[C@@H]32)c1 | -4.15%
95 | O=S(=O)(c1ccc(-c2cnco2)cc1)N1CCC2(CCCNC2)C1 (stereo not given) | -1.83%
96 | CN1CCC(N2CC[C@@H]3[C@@H](CCC(=O)N3CCC3=CCCCC3)C2)CC1 | -1.35%
97 | COc1nccnc1N1CCC2(CC1)C(=O)N(C)c1ccccc12 | -2.17%
98 | O=C(c1n[nH]c2c1CCC2)N1CCCC1c1nc(-c2ccccc2)no1 (stereo not given) | -1.83%
99 | CN(C)c1ccc(C2CC(=O)Nc3c2cnn3Cc2ccco2)cc1 (stereo not given) | -7.08%
100 | CC(C)(C)C1CCC(NCCN2CCOCC2)CC1 (stereo not given) | -5.37%
101 | O=C(C1CCC1)N1CCN(Cc2cccnc2)[C@H]2CS(=O)(=O)C[C@H]21 | -2.54%
102 | CC(Cc1cn(CCc2nc(N)cc(O)n2)nn1)c1ccccc1 (stereo not given) | -11.4%
103 | CN(C)C1CCN(Cc2cnc(S(C)(=O)=O)n2CC2CCCCC2)C1 (stereo not given) | -7.41%
104 | CCN1CCCC(C)(C(=O)NCCc2n[nH]c(=O)[nH]2)C1 (stereo not given) | -3.84%
105 | Cc1ccc(C)c2c(O)cc(CNCCNC(=O)C(C)C)nc12 | -6.05%
106 | Cc1cccnc1CN1CCOC(Cc2cccc3ccccc23)C1 (stereo not given) | -6.62%
107 | CCOCC1(CNCc2cc(O)c3cc(C)ccc3n2)CC1 | -1.7%
108 | Cn1c(CCC(=O)N2CCCC3(CNC(=O)O3)C2)nc2cccnc21 (stereo not given) | -14.8%
109 | COc1ccc(Oc2ncccc2C(F)(F)F)cc1CN1CCCC1 | 14%
110 | COCCN1CCC(CN(CC2CCCO2)C(=O)CCC(F)(F)F)CC1 (stereo not given) | -2.11%
